Reference: publication PMC8991199, “Promiscuity mapping of the S100 protein family using a high-throughput holdup assay” (Scientific Reports, 2022)

Assay: solubility by light scattering
Settings: 20 mM HEPES, 150 mM NaCl, 2 mM CaCl2, pH 7.5, 10 nM to 1 mM, triplicates
Protocol: Foldamers were dissolved in a buffer consisting of 20 mM HEPES, 150 mM NaCl, 2 mM CaCl2, pH = 7.5 at 11 different concentrations from 10 nM to 1 mM. 100 μl samples in triplicates were pipetted into a 96-well ELISA plate and absorbance values were recorded by using FLUOstar OPTIMA plate reader at 650 nm wavelength.

## NC(=O)[C@H](CCCCNC(=O)c1ccc2c(c1)C1(OC2=O)c2ccc(O)cc2Oc2cc(O)ccc21)NC(=O)CNC(=O)[C@H]1CCCC[C@@H]1NC(=O)C[C@H](Cc1c[nH]c2ccccc12)NC(=O)[C@H]1CCCC[C@@H]1NC(=O)[C@H]1CCCC[C@@H]1NC(=O)C[C@H](Cc1c[nH]c2ccccc12)NC(=O)[C@H]1CCCC[C@@H]1N [fWW]
Fig. S2, absorbance at 650 nm
  concentration above which light scattering is increased: above 1 μM
Light scattering on 600 nm (text; method: absorbance at 650 nm)
  concentration at which aggregation was observed: 10 µM
